# Measurements: patent US20210395239A1 (Hoffmann-La Roche Inc., priority 2018, published 2021)
# Target: T1, human TLR8 (Homo sapiens, UniProt Q9NR97)
# T1 construct: host or cells: HEK293 (HEK-Blue hTLR8)
# T1 sequence (Q9NR97 27-1041): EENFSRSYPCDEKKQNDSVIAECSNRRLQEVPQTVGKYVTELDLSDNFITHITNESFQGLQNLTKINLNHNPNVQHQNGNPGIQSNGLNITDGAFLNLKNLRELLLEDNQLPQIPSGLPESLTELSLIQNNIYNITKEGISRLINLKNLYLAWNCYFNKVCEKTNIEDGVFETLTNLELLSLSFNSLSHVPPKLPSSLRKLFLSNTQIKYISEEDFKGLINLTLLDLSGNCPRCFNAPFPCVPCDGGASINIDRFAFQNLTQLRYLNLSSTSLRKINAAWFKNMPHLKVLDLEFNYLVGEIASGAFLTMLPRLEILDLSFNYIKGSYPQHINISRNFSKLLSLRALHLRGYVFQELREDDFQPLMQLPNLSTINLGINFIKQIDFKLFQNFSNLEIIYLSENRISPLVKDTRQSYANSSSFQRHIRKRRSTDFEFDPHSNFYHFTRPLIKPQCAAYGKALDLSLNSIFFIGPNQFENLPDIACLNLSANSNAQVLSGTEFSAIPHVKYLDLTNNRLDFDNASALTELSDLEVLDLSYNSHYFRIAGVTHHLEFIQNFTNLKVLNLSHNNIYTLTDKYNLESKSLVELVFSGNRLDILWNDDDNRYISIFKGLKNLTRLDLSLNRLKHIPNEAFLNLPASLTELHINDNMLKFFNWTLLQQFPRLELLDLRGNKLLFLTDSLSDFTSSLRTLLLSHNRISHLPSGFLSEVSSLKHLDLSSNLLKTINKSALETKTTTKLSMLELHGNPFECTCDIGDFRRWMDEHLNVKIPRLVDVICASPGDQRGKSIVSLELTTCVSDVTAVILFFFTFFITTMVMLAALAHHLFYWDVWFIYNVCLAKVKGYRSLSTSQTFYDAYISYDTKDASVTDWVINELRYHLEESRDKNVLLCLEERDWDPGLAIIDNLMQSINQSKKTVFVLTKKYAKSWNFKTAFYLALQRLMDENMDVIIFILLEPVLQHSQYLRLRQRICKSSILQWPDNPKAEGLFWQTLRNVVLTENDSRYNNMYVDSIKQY
# Test: HEK293-Blue-hTLR-8 cells assay (SEAP reporter, R848 stimulation)
# Assay type: cell-based
# Settings: HEK293-Blue-hTLR8 cells, R848, 20 hrs; read-out: HEK/hTLR8 IC50
# Procedure, shortened: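 Antagonism read as reduced R848-induced SEAP reporter secretion, detected by QUANTI-Blue absorbance at 620–655 nm after 2 h. Reporter cells were exposed to compound dilutions in DMEM/10% FBS, 1% DMSO, for 20 h at 37° C.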
row,Structure (SMILES),IC50 [nM]
1,"Cc1cc(N2CCN(C[C@H]3CN(c4ccc(C#N)c5ncccc45)C[C@@H](C)O3)CC2)nc(N2C[C@H](N)C[C@H](F)C2)n1 (relative stereo) [Example 74, 5-[(2R,6S)-2-methyl-6-[[4-[6-methyl-2-[cis-3-amino-5-fluoro-1-piperidyl]pyrimidin-4-yl]piperazin-1-yl]methyl]morpholin-4-yl]quinoline-8-carbonitrile]",3
2,"Cc1cc(N2CCN(C[C@H]3CN(c4ccc(C#N)c5ncccc45)C[C@@H](C)O3)CC2)nc(N2C[C@H](N)C[C@@H](F)C2)n1 (relative stereo) [Example 75, 5-[(2R,6S)-2-methyl-6-[[4-[6-methyl-2-[trans-3-amino-5-fluoro-1-piperidyl]pyrimidin-4-yl]piperazin-1-yl]methyl]morpholin-4-yl]quinoline-8-carbonitrile]",3
3,"CO[C@H]1CN(c2nc(C)cc(N3CCN(C[C@H]4CN(c5ccc(C#N)c6ncccc56)C[C@@H](C)O4)CC3)n2)C[C@@H]1N (single isomer, unassigned) [Example 69A]",2
4,"CO[C@@H]1CN(c2nc(C)cc(N3CCN(C[C@H]4CN(c5ccc(C#N)c6ncccc56)C[C@@H](C)O4)CC3)n2)C[C@H]1N (single isomer, unassigned) [Example 69B]",2
5,"Cc1cc(N2CCN(C[C@H]3CN(c4ccc(C#N)c5ncccc45)C[C@@H](C)O3)CC2)nc(N2CC[C@@H](F)C(N)C2)n1 (single isomer, unassigned) [Example 84]",7
6,"COC1CN(c2nc(C)cc(N3CCN(C[C@H]4CN(c5ccc(C#N)c6ncccc56)C[C@@H](C)O4)CC3)n2)CC1N (single isomer, unassigned) [Example 88]",2
7,"COC1CNCC1Nc1nc(C)cc(N2CCN(C[C@H]3CN(c4ccc(C#N)c5ncccc45)C[C@@H](C)O3)CC2)n1 (stereo in doubt) [Example 70, 5-[(2S,6R)-2-[[4-[2-[[(3R,4R)-4-methoxypyrrolidin-3-yl]amino]-6-methyl-pyrimidin-4-yl]piperazin-1-yl]methyl]-6-methyl-morpholin-4-yl]quinoline-8-carbonitrile]",12
8,"Cc1cc(N2CCN(C[C@H]3CN(c4ccc(C#N)c5ncccc45)C[C@@H](C)O3)CC2)nc(NC2CNCC2F)n1 (stereo in doubt) [Example 73, 5-[(2S,6R)-2-[[4-[2-[[(3S,4R)-4-fluoropyrrolidin-3-yl]amino]-6-methyl-pyrimidin-4-yl]piperazin-1-yl]methyl]-6-methyl-morpholin-4-yl]quinoline-8-carbonitrile]",17
9,"Cc1cc(N2CCN(C[C@H]3CN(c4ccc(C#N)c5ncccc45)C[C@@H](C)O3)CC2)nc(N2CC[C@@H](N)C(F)C2)n1 (stereo in doubt) [Example 82, 5-[(2S,6R)-2-[[4-[2-[(3R,4R)-4-amino-3-fluoro-1-piperidyl]-6-methyl-pyrimidin-4-yl]piperazin-1-yl]methyl]-6-methyl-morpholin-4-yl]quinoline-8-carbonitrile]",1
10,"CO[C@H]1CN(c2nc(C)cc(N3CCN(C[C@H]4CN(c5ccc(C#N)c6ncccc56)C[C@@H](C)O4)CC3)n2)CCC1N (stereo in doubt) [Example 90, 5-[(2S,6R)-2-[[4-[2-[(3S,4S)-4-amino-3-methoxy-1-piperidyl]-6-methyl-pyrimidin-4-yl]piperazin-1-yl]methyl]-6-methyl-morpholin-4-yl]quinoline-8-carbonitrile]",2
11,"Cc1cc(N2CCN(C[C@H]3CN(c4ccc(C#N)c5ncccc45)C[C@@H](C)O3)CC2)nc(N[C@@H]2CNC[C@@H]2F)n1 [Example 71, 5-[(2S,6R)-2-[[4-[2-[[(3R,4S)-4-fluoropyrrolidin-3-yl]amino]-6-methyl-pyrimidin-4-yl]piperazin-1-yl]methyl]-6-methyl-morpholin-4-yl]quinoline-8-carbonitrile]",15
12,"CO[C@@H]1CN(c2nc(C)cc(N3CCN(C[C@H]4CN(c5ccc(C#N)c6ncccc56)C[C@@H](C)O4)CC3)n2)C[C@@H]1N [Example 72, 5-[(2S,6R)-2-[[4-[2-[(3S,4R)-3-amino-4-methoxy-pyrrolidin-1-yl]-6-methyl-pyrimidin-4-yl]piperazin-1-yl]methyl]-6-methyl-morpholin-4-yl]quinoline-8-carbonitrile]",3
13,"Cc1cc(N2CCN(C[C@H]3CN(c4ccc(C#N)c5ncccc45)C[C@@H](C)O3)CC2)nc(N[C@@H]2CNC[C@H]2F)n1 [Example 76, 5-[(2S,6R)-2-[[4-[2-[[(3R,4R)-4-fluoropyrrolidin-3-yl]amino]-6-methyl-pyrimidin-4-yl]piperazin-1-yl]methyl]-6-methyl-morpholin-4-yl]quinoline-8-carbonitrile]",3
14,"Cc1cc(N2CCN(C[C@H]3CN(c4ccc(C#N)c5ncccc45)C[C@@H](C)O3)CC2)nc(N2C[C@@H](N)C[C@@H](F)C2)n1 [Example 77, 5-[(2S,6R)-2-[[4-[2-[(3S,5R)-3-amino-5-fluoro-1-piperidyl]-6-methyl-pyrimidin-4-yl]piperazin-1-yl]methyl]-6-methyl-morpholin-4-yl]quinoline-8-carbonitrile]",2
15,"Cc1cc(N2CCN(C[C@H]3CN(c4ccc(C#N)c5ncccc45)C[C@@H](C)O3)CC2)nc(N2CC[C@@H](N)[C@@H](F)C2)n1 [Example 78, 5-[(2S,6R)-2-[[4-[2-[(3S,4R)-4-amino-3-fluoro-1-piperidyl]-6-methyl-pyrimidin-4-yl]piperazin-1-yl]methyl]-6-methyl-morpholin-4-yl]quinoline-8-carbonitrile]",1
16,"Cc1cc(N2CCN(C[C@H]3CN(c4ccc(C#N)c5ncccc45)C[C@@H](C)O3)CC2)nc(N2C[C@@H](N)[C@H](F)C2)n1 [Example 79, 5-[(2S,6R)-2-[[4-[2-[(3R,4R)-3-amino-4-fluoro-pyrrolidin-1-yl]-6-methyl-pyrimidin-4-yl]piperazin-1-yl]methyl]-6-methyl-morpholin-4-yl]quinoline-8-carbonitrile]",2
17,"Cc1cc(N2CCN(C[C@H]3CN(c4ccc(C#N)c5ncccc45)C[C@@H](C)O3)CC2)nc(N2CC(N)CC(F)(F)C2)n1 (stereo partly drawn) [Example 80, 5-[(2S,6R)-2-[[4-[2-(5-amino-3,3-difluoro-1-piperidyl)-6-methyl-pyrimidin-4-yl]piperazin-1-yl]methyl]-6-methyl-morpholin-4-yl]quinoline-8-carbonitrile]",6
18,"Cc1cc(N2CCN(C[C@H]3CN(c4ccc(C#N)c5ncccc45)C[C@@H](C)O3)CC2)nc(N2CCNC(C(C)(C)O)C2)n1 (stereo partly drawn) [Example 81, 5-[(2S,6R)-2-[[4-[2-[3-(1-hydroxy-1-methyl-ethyl)piperazin-1-yl]-6-methyl-pyrimidin-4-yl]piperazin-1-yl]methyl]-6-methyl-morpholin-4-yl]quinoline-8-carbonitrile]",2
19,"Cc1cc(N2CCN(C[C@H]3CN(c4ccc(C#N)c5ncccc45)C[C@@H](C)O3)CC2)nc(N2CC[C@@H](F)[C@@H](N)C2)n1 [Example 83, 5-[(2R,6S)-2-methyl-6-[[4-[6-methyl-2-[(3S,4R)-3-amino-4-fluoro-1-piperidyl]-pyrimidin-4-yl]piperazin-1-yl]methyl]morpholin-4-yl]quinoline-8-carbonitrile]",3
20,"Cc1cc(N2CCN(C[C@H]3CN(c4ccc(C#N)c5ncccc45)C[C@@H](C)O3)CC2)nc(N2CCC(N)C(F)(F)C2)n1 (stereo partly drawn) [Example 86, 5-[(2S,6R)-2-[[4-[2-(4-amino-3,3-difluoro-1-piperidyl)-6-methyl-pyrimidin-4-yl]piperazin-1-yl]methyl]-6-methyl-morpholin-4-yl]quinoline-8-carbonitrile]",6
21,"Cc1cc(N2CCN(C[C@H]3CN(c4ccc(C#N)c5ncccc45)C[C@@H](C)O3)CC2)nc(N2CC(N)C2)n1 [Example 87, 5-[(2S,6R)-2-[[4-[2-(3-aminoazetidin-1-yl)-6-methyl-pyrimidin-4-yl]piperazin-1-yl]methyl]-6-methyl-morpholin-4-yl]quinoline-8-carbonitrile]",2
22,"C[C@@H]1CN(c2ccc(C#N)c3ncccc23)C[C@H](CN2CCN(c3ccccc3C3CNCCO3)CC2)O1 (stereo partly drawn) [Example 89, 5-[(2R,6S)-2-methyl-6-[[4-(2-morpholin-2-ylphenyl)piperazin-1-yl]methyl]morpholin-4-yl]quinoline-8-carbonitrile]",29
